Assay results reported in ChEMBL document CHEMBL1148802, “Discovery and synthesis of HIV integrase inhibitors: development of potent and orally bioavailable N-methyl pyrimidones” (J Med Chem, 2007).

Key:
[1] = test system: Human immunodeficiency virus 1; test: Antiviral activity against HIV13b in MT4 cells assessed as decrease in HIV1 p24 core antigen in presence of fetal bovine serum; assay type: functional, 3b; settings: for IC95: Human immunodeficiency virus 1, 3b, MT4, read-out: CIC95
[2] = test system: Human immunodeficiency virus 1; test: Antiviral activity against HIV1 3b in MT4 cells assessed as decrease in […] p24 core antigen in presence of normal human serum; assay type: functional; settings: for IC95: Human immunodeficiency virus 1, 3b, MT4, read-out: CIC95
[3] = Plasma clearance in Beagle dog at 4 mg/kg, iv and 10 mg/kg, po; assay type: ADME, organism-based, Canis lupus familiaris
[4] = Distribution coefficient, log D of the compound; assay type: physicochemical; settings: octanol/water
[5] = (§1) AUC in Sprague-Dawley rat at 3 mg/kg, po; assay type: ADME, organism-based, Plasma; design: dose 3 mg/kg, route oral; settings: Sprague-Dawley, plasma
[6] = Plasma clearance in Sprague-Dawley rat at 3mg/kg, iv and 3mg/kg, po; assay type: ADME, organism-based
[7] = AUC in rhesus monkey at 1 mg/kg, po; assay type: ADME, organism-based, Macaca mulatta; design: dose 1 mg/kg, route oral; settings: plasma
[8] = Oral bioavailability in Sprague-Dawley rat at 3 mg/kg; assay type: ADME, organism-based; settings: in vivo
[9] = Plasma half life in Sprague-Dawley rat at 3 mg/kg, iv and 3 mg/kg, po; assay type: ADME, organism-based
[10] = Cmax in Sprague-Dawley rat at 3 mg/kg, iv and 3 mg/kg, po; assay type: ADME, organism-based; settings: in vivo
[11] = Oral bioavailability in Beagle dog at 10 mg/kg; assay type: ADME, organism-based, Canis lupus familiaris; settings: in vivo
[12] = Plasma half life in Beagle dog at 4 mg/kg, iv and 10 mg/kg, po; assay type: ADME, organism-based, Canis lupus familiaris
[13] = AUC in Beagle dog at 10 mg/kg, po; assay type: ADME, organism-based, Canis lupus familiaris; design: dose 10 mg/kg, route oral; settings: plasma
[14] = Cmax in Beagle dog at 4 mg/kg, iv and 10 mg/kg, po; assay type: ADME, organism-based, Canis lupus familiaris; settings: in vivo
[15] = Oral bioavailability in rhesus monkey at 1 mg/kg; assay type: ADME, organism-based, Macaca mulatta; settings: in vivo
[16] = Plasma half life in rhesus monkey at 1 mg/kg, po and 1 mg/kg, iv; assay type: ADME, organism-based, Macaca mulatta
[17] = Plasma clearance in rhesus monkey at 1 mg/kg, po and 1 mg/kg, iv; assay type: ADME, organism-based, Macaca mulatta
[18] = Solubility at pH 7.4; assay type: physicochemical; settings: buffer
[19] = molecular target: Cytochrome P450 2D6 (Homo sapiens, UniProt P10635); test: Inhibition of human CYP2D6 at 100 uM; assay type: ADME
[20] = molecular target: Cytochrome P450 3A4 (Homo sapiens, UniProt P08684); test: Inhibition of human CYP3A4 at 100 uM; assay type: ADME
[21] = molecular target: Cytochrome P450 2C19 (Homo sapiens, UniProt P33261); test: Inhibition of human CYP2C19 at 100 uM; assay type: ADME
[22] = molecular target: T1, Cytochrome P450 1A2 (Homo sapiens, UniProt P05177); test: Inhibition of human CYP1A2 at 100 uM; assay type: ADME
T1 sequence (P05177 whole entry): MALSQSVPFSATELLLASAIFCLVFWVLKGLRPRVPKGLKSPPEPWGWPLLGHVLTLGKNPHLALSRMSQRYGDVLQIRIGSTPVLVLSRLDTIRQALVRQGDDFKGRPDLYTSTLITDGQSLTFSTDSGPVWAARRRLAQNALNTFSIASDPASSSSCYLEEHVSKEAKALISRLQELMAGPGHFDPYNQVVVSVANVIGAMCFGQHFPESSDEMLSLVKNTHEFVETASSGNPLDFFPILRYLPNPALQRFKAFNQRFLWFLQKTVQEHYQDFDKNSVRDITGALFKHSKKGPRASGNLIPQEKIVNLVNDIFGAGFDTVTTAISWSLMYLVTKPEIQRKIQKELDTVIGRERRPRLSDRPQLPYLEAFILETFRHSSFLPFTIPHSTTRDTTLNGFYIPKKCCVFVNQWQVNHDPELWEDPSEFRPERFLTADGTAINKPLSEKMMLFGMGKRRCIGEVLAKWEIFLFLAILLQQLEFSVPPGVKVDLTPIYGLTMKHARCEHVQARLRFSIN

[23] = molecular target: Human immunodeficiency virus type 1 integrase (Human immunodeficiency virus 1, UniProt Q7ZJM1); test: Inhibition of HIV integrase activity by HIV strand transfer assay
[24] = Protein binding in Sprague-Dawley rat plasma; assay type: ADME, cell-free; settings: read-out: PPB (converted)
[25] = Oral bioavailability in Sprague-Dawley rat; assay type: ADME, organism-based; settings: in vivo
[26] = Plasma clearance in Sprague-Dawley rat; assay type: ADME, organism-based
[27] = Plasma half life in iv dosed Sprague-Dawley rat; assay type: ADME, organism-based
[28] = AUC in Sprague-Dawley rat at 2.3 mg/kg, po; assay type: ADME, organism-based; design: dose 2.3 mg/kg, route oral; settings: plasma
[29] = organism: Homo sapiens; test: Protein binding in human plasma; settings: read-out: PPB (converted)
[30] = test system: Rattus norvegicus; test: as §1; assay type: ADME, organism-based, Plasma; design: dose 3 mg/kg, route oral; settings: in vivo
[31] = Oral bioavailability in Beagle dog; assay type: ADME, organism-based, Canis lupus familiaris; settings: in vivo
[32] = Plasma clearance in Beagle dog; assay type: ADME, organism-based, Canis lupus familiaris
[33] = Plasma half life in iv dosed Beagle dog; assay type: ADME, organism-based, Canis lupus familiaris
[34] = AUC in Beagle dog at 2 mg/kg, po; assay type: ADME, organism-based, Canis lupus familiaris; design: dose 2 mg/kg, route oral; settings: plasma
[35] = AUC in Beagle dog at 0.8 mg/kg, po; assay type: ADME, organism-based, Canis lupus familiaris; design: dose 0.8 mg/kg, route oral; settings: plasma
[36] = Protein binding in Beagle dog plasma; assay type: ADME, organism-based, Canis lupus familiaris; settings: read-out: PPB (converted)
[37] = AUC in Beagle dog at 1.5 mg/kg, po; assay type: ADME, organism-based, Canis lupus familiaris; design: dose 1.5 mg/kg, route oral; settings: plasma
[38] = AUC in Sprague-Dawley rat at 2.4 mg/kg, po; assay type: ADME, organism-based; design: dose 2.4 mg/kg, route oral; settings: plasma
[39] = AUC in Beagle dog at 1 mg/kg, po; assay type: ADME, organism-based, Canis lupus familiaris; design: dose 1 mg/kg, route oral; settings: plasma

## CN1CCOCC1c1nc(C(=O)NCc2ccc(F)cc2)c(O)c(=O)n1C.Cl (single isomer, unassigned; (+))
[1]
  CIC95: 40 µM
[2]
  CIC95: 65 µM
[3]
  clearance: 2.2 mL/min/kg
[4]
  Log D: 0.47
[5]
  AUC: 8 µM·h
[6]
  clearance: 9 mL/min/kg
[7]
  AUC: 2.2 µM·h
[8]
  bioavailability: 56%
[9]
  half-life: 1.1 h
[10]
  Cmax: 5.6 µM
[11]
  bioavailability: 69%
[12]
  half-life: 7.2 h
[13]
  AUC: 136 µM·h
[14]
  Cmax: 35 µM
[15]
  bioavailability: 73%
[16]
  half-life: 2 h
[17]
  clearance: 14 mL/min/kg
[18]
  solubility: 5800 µg/mL
[19]
  Activity: Not Active
[20]
  Activity: Not Active
[21]
  Activity: Not Active
[22]
  Activity: Not Active

## CN1C[C@H](F)C[C@H]1c1nc(C(=O)NCc2ccc(F)cc2)c(O)c(=O)n1C
[23]
  IC50: 20 nM
[1]
  IC95: 130 nM
[2]
  IC95: 250 nM
[24]
  fraction unbound: 0.03
[25]
  bioavailability: 100%
[26]
  clearance: 12 mL/min/kg
[27]
  half-life: 2 h
[4]
  logD: 0.66
[5]
  AUC: 12.5 µM·h

## CN1C[C@H](O)C[C@H]1c1nc(C(=O)NCc2ccc(F)cc2)c(O)c(=O)n1C
[23]
  IC50: 100 nM
[1]
  IC95: 630 nM
[2]
  IC95: 630 nM
[24]
  fraction unbound: 0.22
[25]
  bioavailability: 2%
[26]
  clearance: 21 mL/min/kg
[27]
  half-life: 1.8 h
[28]
  AUC: 0.1 µM·h
[29]
  fraction unbound: 0.28

## CN1CCOCC1c1nc(C(=O)NCc2ccc(F)cc2)c(O)c(=O)n1C.Cl (single isomer, unassigned; (-))
[1]
  CIC95: 90 µM
[2]
  CIC95: 190 µM
[25]
  bioavailability: 84%
[26]
  clearance: 18 mL/min/kg
[27]
  half-life: 1 h
[30]
  AUC: 6 µM·h
[31]
  bioavailability: 87%
[32]
  clearance: 2.6 mL/min/kg
[33]
  half-life: 1.9 h
[34]
  AUC: 29 µM·h

## CN1CCOCC1c1nc(C(=O)NCc2ccc(F)cc2)c(O)c(=O)n1C (stereo unspecified)
[1]
  CIC95: 0.06 µM
[2]
  CIC95: 0.1 µM
[24]
  fraction unbound: 0.22
[25]
  bioavailability: 92%
[26]
  clearance: 22 mL/min/kg
[27]
  half-life: 1.6 h
[28]
  AUC: 4.3 µM·h
[4]
  logD: 0.59
[31]
  bioavailability: 100%
[32]
  clearance: 3 mL/min/kg
[33]
  half-life: 10 h
[35]
  AUC: 11 µM·h
[36]
  fraction unbound: 0.53
[37]
  AUC: 22 µM·h
[7]
  AUC: 1.7 µM·h

## CN1C[C@@H](F)C[C@H]1c1nc(C(=O)NCc2ccc(F)cc2)c(O)c(=O)n1C
[23]
  IC50: 20 nM
[1]
  IC95: 60 nM
[2]
  IC95: 130 nM
[24]
  fraction unbound: 0.08
[25]
  bioavailability: 94%
[26]
  clearance: 21 mL/min/kg
[27]
  half-life: 1.7 h
[5]
  AUC: 4.5 µM·h

## CN1C[C@H](OCc2ccccc2)C[C@H]1c1nc(C(=O)NCc2ccc(F)cc2)c(O)c(=O)n1C
[23]
  IC50: 130 nM
[1]
  IC95: < 80 nM
[2]
  IC95: 310 nM
[24]
  fraction unbound: 0.07
[25]
  bioavailability: 75%
[26]
  clearance: 28 mL/min/kg
[27]
  half-life: 2.3 h
[4]
  logD: 2.2
[38]
  AUC: 2.3 µM·h
[29]
  fraction unbound: 0.05

## CC(=O)N1CCN(C)C(c2nc(C(=O)NCc3ccc(F)cc3)c(O)c(=O)n2C)C1 (stereo unspecified)
[23]
  IC50: 32 nM
[1]
  IC95: 230 nM
[2]
  IC95: 300 nM
[25]
  bioavailability: 17%
[26]
  clearance: 42 mL/min/kg
[27]
  half-life: 0.9 h
[4]
  logD: 0.09
[5]
  AUC: 0.8 µM·h
[29]
  fraction unbound: 0.3

## CN1CCSCC1c1nc(C(=O)NCc2ccc(F)cc2)c(O)c(=O)n1C (stereo unspecified)
[23]
  IC50: 70 nM
[1]
  IC95: 50 nM
[2]
  IC95: 130 nM
[25]
  bioavailability: 76%
[26]
  clearance: 10 mL/min/kg
[27]
  half-life: 0.5 h
[5]
  AUC: 9.7 µM·h
[29]
  fraction unbound: 0.17

## CN1CC(F)(F)C[C@H]1c1nc(C(=O)NCc2ccc(F)cc2)c(O)c(=O)n1C
[23]
  IC50: 30 nM
[1]
  IC95: 30 nM
[2]
  IC95: 170 nM
[24]
  fraction unbound: 0.06
[25]
  bioavailability: 93%
[26]
  clearance: 11 mL/min/kg
[27]
  half-life: 0.6 h
[5]
  AUC: 11.8 µM·h
[31]
  bioavailability: 100%
[32]
  clearance: 5 mL/min/kg
[33]
  half-life: 6 h
[39]
  AUC: 9.9 µM·h
[36]
  fraction unbound: 0.15
[29]
  fraction unbound: 0.12

## CN1CCN(S(C)(=O)=O)CC1c1nc(C(=O)NCc2ccc(F)cc2)c(O)c(=O)n1C (stereo unspecified)
[23]
  IC50: 11 nM
[1]
  IC95: 130 nM
[2]
  IC95: 130 nM
[25]
  bioavailability: 38%
[26]
  clearance: 78 mL/min/kg
[27]
  half-life: 0.8 h
[5]
  AUC: 0.6 µM·h
[29]
  fraction unbound: 0.31

## CO[C@@H]1C[C@@H](c2nc(C(=O)NCc3ccc(F)cc3)c(O)c(=O)n2C)N(C)C1
[23]
  IC50: 180 nM
[1]
  IC95: 150 nM
[2]
  IC95: 170 nM
[24]
  fraction unbound: 0.11
[25]
  bioavailability: 79%
[26]
  clearance: 19 mL/min/kg
[27]
  half-life: 1.5 h
[5]
  AUC: 5.2 µM·h
[29]
  fraction unbound: 0.25
